Patent US20260167620A1, “MULTIFUNCTIONAL COMPOUND CAPABLE OF DEGRADING BTK KINASE, AND COMPOSITION AND USE” (HANGZHOU HEALZEN THERAPEUTICS CO., LTD., priority 2021, published 2026)

Key:
[1] = target: T1, BTK (Homo sapiens, UniProt Q06187); assay: BTK degradation activity test in Mino cells (Westernblot or Elisa); assay type: cell-based; conditions: 24-72 h incubation
T1 construct: endogenous in cells; host or cells: Mino cells
Description: The Mino cell line cells are 0.5˜1 million/well in 6-well plates. The compounds are diluted to different concentrations, added to the plate, and after 24-72 h of incubation, the cells are collected. After the cells were lysed, the total protein concentration in each well was determined with a BCA kit. The amount of BTK is determined using the Westernblot or Elisa method.

[2] = tested on: Mino cells; assay: Inhibitory activity on Mino cell proliferation (MTS); assay type: cell-based; conditions: Homo sapiens, 72 h or 168 h
Description: (§1) The anti-tumor efficacy of the compounds was tested by measuring their inhibitory effects on OCI-LY10 and Mino cell proliferation. OCI-LY10 and Mino cells were cultured in RPM-1640 medium containing […] fetal calf serum. OCI-LY10 and Mino cells were digested, inoculated in a 96-well plate at a cell concentration of 10000 cells/well, and incubated overnight at 37° C., 5% CO2. Compounds of different concentrations (1000 nM, 4-fold dilution, 8 points) were added to the 96-well plate and incubated for 72 h or 168 h at 37° C. and […], and then 20 μL of MTS was added to each well. After incubation for 2 h, 25 μl of 10% SDS was added to each well to terminate the reaction. The absorbance at 490 nm and 650 nm were measured with a microplate reader. IC50 was calculated using GraphPad Prism 5.0.

[3] = Mouse absorption test; assay type: in vivo; conditions: mice, intragastric 10 mg/kg, plasma
Description: (§2) Experimental method: mice were used as experimental animals, and drugs were administered intragastrically at 10 mg/kg (5% DMSO+5% Solutol+90% saline). The blood collection time points for intragastric administration were 0.25, 0.5, 1, 2, 4, 6, 8, and 24 h. 0.3 ml of whole blood was taken, and 0.1 ml of plasma was taken after centrifugation and analyzed by LC-MS.

[4] = Rat absorption test; assay type: in vivo; conditions: SD rats, intragastric 10 mg/kg, plasma
Description: as §2, with “SD Rats” for “Experimental method: mice”, “Solutol+90% normal” for “Solutol+90%”

[5] = tested on: OCI-LY10 cells; assay: Inhibitory activity on OCI-LY10 cell proliferation (MTS); assay type: cell-based; conditions: Homo sapiens, 72 h or 168 h
Description: as §1

[6] = Liver microsomal metabolic stability, human; assay type: in vitro ADME; conditions: human liver microsomes, NADPH, 37° C.
Description: (§3) Under the condition of ice bath, 1 mg of human or Mouse liver microparticles was add to PBS (1 mL) buffer, then NADPH (20 μL) was added, and incubated at 37° C. for 5 min. 10 μL of the compound to be tested was added, then suck several times with a pipette and divide into 3 aliquots of 330 μL; each and then samples were taken at 0, 15, 30, 60 and 120 min respectively. 10 μL of the solution was taken with a pipette each time and added to 490 μL of the solution containing the internal standard compound. The resulting solution was vortexed and then placed on ice, and then sampling at another time point continues. All samples were centrifuged at 10,000 rpm for 10 min, and the supernatant was taken for LC/MS testing. The metabolism of the compound in liver microsomes was calculated based on the peak area.

[7] = Liver microsomal metabolic stability, mouse; assay type: in vitro ADME; conditions: mouse liver microsomes, NADPH, 37° C.
Description: as §3

T1 sequence (Q06187 whole entry): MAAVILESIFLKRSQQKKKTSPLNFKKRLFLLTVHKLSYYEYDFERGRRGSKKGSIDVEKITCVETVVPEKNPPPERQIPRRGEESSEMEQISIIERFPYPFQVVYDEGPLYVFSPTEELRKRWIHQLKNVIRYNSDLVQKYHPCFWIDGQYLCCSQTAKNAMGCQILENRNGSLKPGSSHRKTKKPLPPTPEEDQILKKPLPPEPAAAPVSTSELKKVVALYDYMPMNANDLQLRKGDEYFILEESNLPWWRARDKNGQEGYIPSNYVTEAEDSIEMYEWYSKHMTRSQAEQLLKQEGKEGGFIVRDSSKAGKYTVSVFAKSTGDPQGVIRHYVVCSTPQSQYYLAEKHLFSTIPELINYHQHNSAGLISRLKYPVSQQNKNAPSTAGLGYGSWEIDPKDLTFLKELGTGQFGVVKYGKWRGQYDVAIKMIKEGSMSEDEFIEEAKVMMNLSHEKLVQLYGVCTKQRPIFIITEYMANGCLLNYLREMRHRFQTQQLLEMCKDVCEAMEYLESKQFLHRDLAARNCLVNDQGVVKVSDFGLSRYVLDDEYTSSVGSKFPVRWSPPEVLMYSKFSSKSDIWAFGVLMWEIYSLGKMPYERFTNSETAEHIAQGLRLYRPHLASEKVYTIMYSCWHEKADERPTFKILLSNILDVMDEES

| Compound | DC50 [1] | DNAUC [3] | DNAUC [4] | IC50 [5] | Thalf (min) Human [6] | Thalf (min) Mouse [7] | IC50 [2] |
| --- | --- | --- | --- | --- | --- | --- | --- |
| NC(=O)c1nnc(N2CCCCC2)nc1Nc1ccc(N2CCC(CN3CCN(c4ccc5c(c4)C(=O)N(C4CCC(=O)NC4=O)C5=O)CC3)CC2)c(F)c1 (stereo not drawn) [Compound 044, 5-((4-(4-((4-(2-(2,6-dioxopiperidin-3-yl)-1,3-dioxoisoindolin-5-yl)piperazin-1-yl)methyl)piperidin-1-yl)-3-fluorophenyl)amino)-3-(piperidin-1-yl)-1,2,4-triazine-6-carboxamide] | < 10 nM | 1941 AUC (h*ng/mL)/dose (mg/kg) |  |  |  |  | 3.46 nM |
| NC(=O)c1nnc(N2CCCCC2)nc1Nc1ccc(N2CCC(CN3CCN(c4cc5c(cc4F)C(=O)N(C4CCC(=O)NC4=O)C5=O)CC3)CC2)cc1 (stereo not drawn) [Compound 046, 5-((4-(4-((4-(2-(2,6-dioxopiperidin-3-yl)-6-fluoro-1,3-dioxoisoindolin-5-yl)piperazin-1-yl)methyl)piperidin-1-yl)phenyl)amino)-3-(piperidin-1-yl)-1,2,4-triazine-6-carboxamide] | < 10 nM | 1867 AUC (h*ng/mL)/dose (mg/kg) |  |  |  |  |  |
| NC(=O)c1nnc(N2CCCCC2)nc1Nc1ccc(N2CCN(CC3CCN(c4ccc(C(=O)NC5CCC(=O)NC5=O)nc4)C3)CC2)c(F)c1 (stereo not drawn) [Compound 079, 5-((4-(4-((1-(6-((2,6-dioxopiperidin-3-yl)carbamoyl)pyridin-3-yl)pyrrolidin-3-yl)methyl)piperazin-1-yl)-3-fluorophenyl)amino)-3-(piperidin-1-yl)-1,2,4-triazine-6-carboxamide] | < 10 nM |  | 6611 AUC (h*ng/mL)/dose (mg/kg) | 1.15 nM |  |  |  |
| NC(=O)c1nnc(N2CCCCC2)nc1Nc1ccc(C2CCN(CC3CCN(c4ccc5c(c4)C(=O)N(C4CCC(=O)NC4=O)C5=O)C3)CC2)cc1 (stereo not drawn) [Compound 001, 5-((4-(1-((1-(2-(2,6-dioxopiperidin-3-yl)-1,3-dioxoisoindolin-5-yl)pyrrolidin-3-yl)methyl)piperidin-4-yl)phenyl)amino)-3-(piperidin-1-yl)-1,2,4-triazine-6-carboxamide] | < 10 nM | 2300 AUC (h*ng/mL)/dose (mg/kg) |  | 3 nM | 71.37 min | 47.13 min | 5.5 nM |
| NC(=O)c1nnc(N2CCCCC2)nc1Nc1ccc(N2CCN(CC3CCN(c4ccc(NC5CCC(=O)NC5=O)nc4)CC3)CC2)c(F)c1 (stereo not drawn) [Compound 077, 5-((4-(4-((1-(6-((2,6-dioxopiperidin-3-yl)amino)pyridin-3-yl)piperidin-4-yl)methyl)piperazin-1-yl)-3-fluorophenyl)amino)-3-(piperidin-1-yl)-1,2,4-triazine-6-carboxamide] | < 10 nM |  | 285 AUC (h*ng/mL)/dose (mg/kg) | 1.59 nM | 57 min | 79 min |  |
| NC(=O)c1nnc(N2CCCCC2)nc1Nc1ccc(N2CCN(CC3CCN(c4ccc(C(=O)NC5CCC(=O)NC5=O)nc4)CC3)CC2)c(F)c1 (stereo not drawn) [Compound 085, 5-((4-(4-((1-(6-((2,6-dioxopiperidin-3-yl)carbamoyl)pyridin-3-yl)piperidin-4-yl)methyl)piperazin-1-yl)-3-fluorophenyl)amino)-3-(piperidin-1-yl)-1,2,4-triazine-6-carboxamide] | < 10 nM |  | 579 AUC (h*ng/mL)/dose (mg/kg) | 0.57 nM |  |  |  |
| NC(=O)c1nnc(N2CCCCC2)nc1Nc1ccc(C2CCN(CC3CCN(c4ccc5c(c4)C(=O)N(C4CCC(=O)NC4=O)C5=O)C3)CC2)c(F)c1 (stereo not drawn) [Compound 002, 5-((4-(1-((1-(2-(2,6-dioxopiperidin-3-yl)-1,3-dioxoisoindolin-5-yl)pyrrolidin-3-yl)methyl)piperidin-4-yl)-3-fluorophenyl)amino)-3-(piperidin-1-yl)-1,2,4-triazine-6-carboxamide] | < 10 nM | 2223 AUC (h*ng/mL)/dose (mg/kg) | 252 AUC (h*ng/mL)/dose (mg/kg) |  | 120 min | 54 min |  |

Continued, in another order:

| DC50 [1] | DNAUC [3] | DNAUC [4] | IC50 [5] | Thalf (min) Human [6] | Thalf (min) Mouse [7] | Compound | IC50 [2] |
| --- | --- | --- | --- | --- | --- | --- | --- |
| < 10 nM | 1955 AUC (h*ng/mL)/dose (mg/kg) |  |  |  |  | NC(=O)c1nnc(N2CCCCC2)nc1Nc1ccc(C2CCN(CC3CCN(c4ccc5c(c4)C(=O)N(C4CCC(=O)NC4=O)C5=O)CC3)CC2)c(F)c1 (stereo not drawn) [Compound 007, 5-((4-(1-((1-(2-(2,6-dioxopiperidin-3-yl)-1,3-dioxoisoindolin-5-yl)piperidin-4-yl)methyl)piperidin-4-yl)-3-fluorophenyl)amino)-3-(piperidin-1-yl)-1,2,4-triazine-6-carboxamide] | 5.31 nM |
| < 10 nM |  | 372 AUC (h*ng/mL)/dose (mg/kg) |  |  |  | NC(=O)c1nnc(N2CCCCC2)nc1Nc1ccc(N2CCN(CC3CCN(c4ncc(-c5ccc(=O)[nH]n5)cc4C(F)(F)F)CC3)CC2)c(F)c1 [Compound 081, 5-((3-fluoro-4-(4-((1-(5-(6-oxo-1,6-dihydropyridazin-3-yl)-3-(trifluoromethyl)pyridin-2-yl)piperidin-4-yl)methyl)piperazin-1-yl)phenyl)amino)-3-(piperidin-1-yl)-1,2,4-triazine-6-carboxamide] |  |
| < 10 nM |  | 1125 AUC (h*ng/mL)/dose (mg/kg) | 0.51 nM |  |  | Cc1cc(N2CCC(CN3CCN(c4ccc(Nc5nc(N6CCCCC6)nnc5C(N)=O)cc4F)CC3)CC2)ccc1N1CCC(=O)NC1=O [Compound 075, 5-((4-(4-((1-(4-(2,4-dioxotetrahydropyrimidin-1(2H)-yl)-3-methylphenyl)piperidin-4-yl)methyl)piperazin-1-yl)-3-fluorophenyl)amino)-3-(piperidin-1-yl)-1,2,4-triazine-6-carboxamide] | 1.42 nM |
| < 10 nM | 1686 AUC (h*ng/mL)/dose (mg/kg) | 716 AUC (h*ng/mL)/dose (mg/kg) |  | 38 min | 120 min | NC(=O)c1nnc(N2CCCCC2)nc1Nc1ccc(N2CCC(CN3CCN(c4cc5c(cc4F)C(=O)N(C4CCC(=O)NC4=O)C5=O)CC3)CC2)c(F)c1 (stereo not drawn) [Compound 045, 5-((4-(4-((4-(2-(2,6-dioxopiperidin-3-yl)-6-fluoro-1,3-dioxoisoindolin-5-yl)piperazin-1-yl)methyl)piperidin-1-yl)-3-fluorophenyl)amino)-3-(piperidin-1-yl)-1,2,4-triazine-6-carboxamide] | 3.91 nM |
| < 10 nM | 1648 AUC (h*ng/mL)/dose (mg/kg) | 456 AUC (h*ng/mL)/dose (mg/kg) |  |  |  | NC(=O)c1nnc(N2CCCCC2)nc1Nc1ccc(N2CCN(CC3CCN(c4ccc5c(c4)C(=O)N(C4CCC(=O)NC4=O)C5=O)C3)CC2)c(F)c1 (stereo not drawn) [Compound 003, 5-((4-(4-((1-(2-(2,6-dioxopiperidin-3-yl)-1,3-dioxoisoindolin-5-yl)pyrrolidin-3-yl)methyl)piperazin-1-yl)-3-fluorophenyl)amino)-3-(piperidin-1-yl)-1,2,4-triazine-6-carboxamide] |  |
